Laboratory results as given in US9271487B2, “Protein stabilized antimicrobial composition formed by melt processing” (Kimberly-Clark Worldwide, Inc., priority 2010, dated 2016).

Assay: Thymol Concentrations in Extractions (thymol released into liquid, HPLC)
Format: physicochemical
Conditions: neat thymol <250 microns, 2 g, 30 mins
Protocol: An aliquot of a sample was centrifuged at approximately 5000 rpm until visible settling occurred (approximately 30 minutes). […]. The contents were dissolved and diluted with a 0.1% AA:IPA (50:50) solution to volume. The solution was then filtered with Pall Acrodisc 0.45 micron nylon membrane. The thymol concentration was determined through “High Performance Liquid Chromatography (HPLC) analysis” according to the following conditions:
HPLC Equipment & Conditions
HPLC: Agilent 1100 HPLC system.
Column: Phenomenex Luna NH2 (5 μm, 250 mm×4.6 mm)-ambient
Detector: UV/Vis at 280 nm
Mobile Phases: (75:25) (IPA: 0.1% acetic acid)
Flow Rate: approximately 0.6 mL/min.
Injection Volume: approximately 15 μL

Cc1ccc(C(C)C)c(O)c1 [thymol, Thymol]
% Thymol (wt/wt) in extract solution (0 g citric acid, 100 mL deionized water): 0.084 % (wt/wt)
% Thymol (wt/wt) in extract solution (1.14 g citric acid, 97 mL deionized water): 0.081 % (wt/wt)
